One may read the EC50 as the concentration that produces a half-maximal response.

Data set [1] has as its system bacterial strain of Escherichia coli (ECAO50, derived from Escherichia coli K12). Put plainly: microbe, parasite or virus in culture. Particulars: 24 h. How it is done:
(§1) In order to know the threshold of phloroglucinol tolerance of bacteria or of yeasts, growth kinetics were prepared in the presence of various concentrations of phloroglucinol. These preliminary experiments aimed to evaluate their EC50.
(§2) The experiment was carried out in the following way. The phloroglucinol was dissolved at the concentration of 15 g·l^−1 in complete medium (Yeast Extract 1%+BactoPeptone 2%) containing 2% glucose as carbon source (YPD medium). The culture media containing lower phloroglucinol concentrations were obtained by diluting this first medium in the same YPD medium containing 2% glucose.
(§3) In order to carry out the experiment, the wild-type yeast or bacterial cells were inoculated at an OD600 nm of 0.05 into the various media, thus containing, as soon as the cultures were started, either 0 (positive control for growth indicated C+), 1, 2.5, 5, 7.5, 10 or 15 g·l^−1 of phloroglucinol. The cultures were carried out in 48-well microplates, at 28° C. for the yeasts, at 37° C. for the bacterial strain, with vigorous shaking for 24 h. Two yeast strains (Saccharomyces cerevisiae) and one bacterial strain (Escherichia coli) were tested.

For another data set, the system named is CC787-1B yeast strain. Put plainly: Growth kinetics of yeast cells in the presence of increasing phloroglucinol concentrations. The procedure:
as §1, §2, §3

The next data set has as its target T1, SNQ2 (Saccharomyces cerevisiae, UniProt P32568).
T1 construct: expressed in transfected cells; host or cells: Saccharomyces cerevisiae, gene integrated at the JLP1 locus under the pCCW12 promoter (clones YA2786-1 and YA2786-2)
Put plainly: Phloroglucinol tolerance of yeast strains overexpressing PDRs (OD600 nm at 24 h). Particulars: inferred from SNQ2 overexpression lifting toxicity at 20 g·l^−1 phloroglucinol. Format: cell-based. The text has this:
The genes encoding the PDR proteins were amplified from yeast (W303-1A) genomic DNA by PCR (“polymerase chain reaction”) and cloned in plasmids. The accuracy of the sequence was verified by sequencing. The various genes encoding the PDRs were integrated into the genome at the JLP1 locus according to the structure described in FIG. 4A. Each strain constructed bears a YA number, and a library of 28 yeast strains overexpressing a PDR transporter was thus created, in a proportion of two clones per transporter.
In order to test the impact of the PDR overexpression on the phloroglucinol tolerance at high phloroglucinol concentration (>15 g·l^−1), the strains were cultured as follows.
The phloroglucinol was dissolved at the concentration of 20 g·l^−1 in YPD medium containing 2% glucose as carbon source. In order to carry out the experiment, the yeasts expressing each PDR were inoculated at an OD600 nm of 0.05. The cultures were carried out in 48-well microplates, incubated with agitation at 28° C. for 24 h. After 24 h, the OD600 nm is measured. FIG. 5 represents the OD600 nm values obtained at the end of the culture.

The test system of another data set is yeast cells. The experiment in a line: Phloroglucinol toxicity in yeast with ethanol added after 20 h of culture. Particulars: 20 g/l of phloroglucinol, 50 g·l^−1 ethanol added at 20 h, read at 48 h.

≈ marks a conversion by molar mass, not a printed value.

T1 sequence (P32568 whole entry): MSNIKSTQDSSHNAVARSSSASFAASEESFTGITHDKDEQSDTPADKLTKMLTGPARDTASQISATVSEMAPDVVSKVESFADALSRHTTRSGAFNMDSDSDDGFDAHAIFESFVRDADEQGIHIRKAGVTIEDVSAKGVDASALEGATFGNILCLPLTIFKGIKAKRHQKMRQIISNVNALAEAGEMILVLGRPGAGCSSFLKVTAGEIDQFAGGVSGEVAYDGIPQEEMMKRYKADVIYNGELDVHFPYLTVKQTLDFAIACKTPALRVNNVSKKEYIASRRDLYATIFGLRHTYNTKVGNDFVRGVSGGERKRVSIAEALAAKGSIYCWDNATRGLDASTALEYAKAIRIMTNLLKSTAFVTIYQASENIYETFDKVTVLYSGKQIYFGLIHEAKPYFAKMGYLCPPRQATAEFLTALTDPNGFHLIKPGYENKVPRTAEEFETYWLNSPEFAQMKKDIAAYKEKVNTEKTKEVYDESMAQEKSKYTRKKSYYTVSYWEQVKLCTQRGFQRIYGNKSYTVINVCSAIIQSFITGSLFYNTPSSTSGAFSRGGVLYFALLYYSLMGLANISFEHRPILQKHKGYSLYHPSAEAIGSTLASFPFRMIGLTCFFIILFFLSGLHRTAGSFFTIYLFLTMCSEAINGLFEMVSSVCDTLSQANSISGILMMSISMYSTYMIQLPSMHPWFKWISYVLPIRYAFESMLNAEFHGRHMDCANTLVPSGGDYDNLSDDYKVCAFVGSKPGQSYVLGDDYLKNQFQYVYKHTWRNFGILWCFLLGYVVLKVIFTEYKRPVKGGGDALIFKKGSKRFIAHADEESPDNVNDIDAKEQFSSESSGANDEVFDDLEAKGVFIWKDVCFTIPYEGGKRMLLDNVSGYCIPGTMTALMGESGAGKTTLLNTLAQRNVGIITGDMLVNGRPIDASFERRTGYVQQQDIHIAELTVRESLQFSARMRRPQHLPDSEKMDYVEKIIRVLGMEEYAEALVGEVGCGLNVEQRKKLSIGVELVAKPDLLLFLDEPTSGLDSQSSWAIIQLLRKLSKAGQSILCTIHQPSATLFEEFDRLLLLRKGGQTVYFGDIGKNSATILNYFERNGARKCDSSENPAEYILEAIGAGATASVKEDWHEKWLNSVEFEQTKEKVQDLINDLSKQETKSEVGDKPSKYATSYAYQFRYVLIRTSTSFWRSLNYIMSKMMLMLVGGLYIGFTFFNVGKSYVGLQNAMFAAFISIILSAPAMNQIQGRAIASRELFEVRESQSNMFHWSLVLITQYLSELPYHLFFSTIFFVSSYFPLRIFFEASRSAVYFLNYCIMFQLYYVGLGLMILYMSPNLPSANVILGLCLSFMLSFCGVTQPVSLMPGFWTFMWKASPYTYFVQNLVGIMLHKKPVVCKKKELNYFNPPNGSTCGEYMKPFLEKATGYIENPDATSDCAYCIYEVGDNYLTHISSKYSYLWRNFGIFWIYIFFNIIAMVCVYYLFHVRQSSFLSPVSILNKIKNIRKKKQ

On to `Oc1cc(O)cc(O)c1` [phloroglucinol, benzene-1,3,5-triol], for which the “concentrations giving total inhibition of the growth” value in data set [1] (37° C.) is on record as “greater than or equal to 2.5 g·l^−1”. For the same compound, the EC50 in data set [1] (Escherichia coli, read-out: EC50 of phloroglucinol on growth) was roughly 750 µg/mL (≈ 5.95 mM); with CC787-1B yeast strain (Saccharomyces cerevisiae, 24 h, read-out: EC50 of phloroglucinol on growth) it was greater than 10000 µg/mL. Also, the “inhibition of the growth” value in data set [1] (at the concentration of 1 g·l^−1, 37° C.) is given as “very considerable inhibition of the growth”. The “concentration from which phloroglucinol toxicity on yeast cells is apparent” value in the data set with CC787-1B yeast strain (conclusion) was no less than 15000 µg/mL. Besides, in the data set with CC787-1B yeast strain (only in this medium among 1-15 g·l^−1, 28° C., 24 h), the “concentration at which significant inhibition of the growth is observed” value was 15000 µg/mL. On SNQ2, the transporter substrate status result is “substrate for SNQ2”. In addition, the “phloroglucinol inhibition in the presence of ethanol versus without ethanol” value with yeast cells was “slightly greater”.
